Test results from US20060223837A1 (priority 2005, published 2006).

Experiments:
[1] = test system: dextran sulfate induced colitis; conditions: animal model; cited from earlier work
[2] = test system: CFA-induced mechanical hyperalgesia; conditions: literature; cited from earlier work
neuropathic pain = conditions: chronic constriction injury rodent neuropathic pain model; cited from earlier work
human VR1 [3] = target: T1, human VR1 (Homo sapiens, UniProt Q8NER1); experiment: Human VR1 functional assay (FLIPR intracellular Ca2+); type: cell-based; conditions: for IC50: antagonism of capsaicin-induced Ca2+ increase, read-out: h IC50; for inhibition at 1 µM / inhibition at 5 µM: inhibition of capsaicin response; for inhibition at 1 µM: read-out: h % I (1 μM); for inhibition at 5 µM: read-out: h % I (5 μM)
T1 construct: expressed in transfected cells; host or cells: HEK293
How it was run: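 HEK293 cells expressing human VR1, loaded with Calcium 3 dye, were exposed to test compounds for 5 min while FLIPR recorded intracellular Ca2+, then challenged with capsaicin at ~80% maximal response ([…]). EC50 or IC50 came from dose-response curves on quadruplicate-well means.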

human VR1 [4] = target: T1, human VR1; experiment: Human VR1 [3H]RTX binding assay; conditions: [3H]RTX binding, HEK293 membranes
How it was run: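 Membranes from human VR1-transfected HEK293 cells (~120 μg protein/ml) incubated with [3H]RTX in HEPES pH 7.4 with 0.25 mg/mL BSA, 37 C, 60 min. Bound counts by scintillation after α-acid glycoprotein and centrifugation; nonspecific defined with 200 nM unlabelled RTX. Ki from duplicate means.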

chronic arthritis = conditions: tail vein model; cited from earlier work
cough = conditions: capsaicin and citric acid induced cough, guinea pig; cited from earlier work

T1 sequence (Q8NER1 whole entry): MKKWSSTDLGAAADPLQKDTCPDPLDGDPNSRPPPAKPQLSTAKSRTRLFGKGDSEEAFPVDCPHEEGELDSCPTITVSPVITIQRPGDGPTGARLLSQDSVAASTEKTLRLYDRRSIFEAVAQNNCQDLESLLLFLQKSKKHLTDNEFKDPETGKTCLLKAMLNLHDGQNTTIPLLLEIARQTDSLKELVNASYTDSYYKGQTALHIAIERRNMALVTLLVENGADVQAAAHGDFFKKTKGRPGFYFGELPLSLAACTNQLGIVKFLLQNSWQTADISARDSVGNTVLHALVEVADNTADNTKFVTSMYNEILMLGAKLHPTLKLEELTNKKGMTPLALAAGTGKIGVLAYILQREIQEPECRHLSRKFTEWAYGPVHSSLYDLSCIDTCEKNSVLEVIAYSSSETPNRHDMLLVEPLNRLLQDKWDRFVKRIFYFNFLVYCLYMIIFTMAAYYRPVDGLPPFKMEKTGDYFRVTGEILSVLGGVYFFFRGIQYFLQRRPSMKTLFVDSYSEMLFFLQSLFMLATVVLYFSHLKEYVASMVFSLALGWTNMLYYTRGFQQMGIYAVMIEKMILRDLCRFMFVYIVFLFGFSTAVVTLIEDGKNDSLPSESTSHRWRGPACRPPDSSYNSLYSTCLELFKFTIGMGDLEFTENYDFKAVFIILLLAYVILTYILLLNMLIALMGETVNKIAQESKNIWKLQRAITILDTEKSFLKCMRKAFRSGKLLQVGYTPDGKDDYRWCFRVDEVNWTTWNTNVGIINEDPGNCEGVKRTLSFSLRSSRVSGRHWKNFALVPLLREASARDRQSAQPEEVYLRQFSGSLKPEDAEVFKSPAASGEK

Structure (SMILES) | IC50 (human VR1 [3]) [µM] | Ki (human VR1 [4]) [µM] | inhibition at 5 µM (human VR1 [3]) [%] | other results
Nc1ccc(O)c(C(=O)O)c1 [5-ASA] | – | – | – | protection against colitis [1]: protects against dextran sulfate induced colitis
CC(C)(C)c1ccc(NC(=O)N2CCN(c3ncccc3Cl)CC2)cc1 [BCTC] | – | – | – | effect on hyperalgesia [2]: reduced hyperalgesia; effect on mechanical hyperalgesia and tactile allodynia (neuropathic pain): reduced mechanical hyperalgesia and tactile allodynia
Cc1cn(-c2ccc(NC(=O)CCc3ccc(C(F)(F)F)cn3)cc2C(F)(F)F)cn1 [Cpd 233, N-[4-(4-Methyl-imidazol-1-yl)-3-trifluoromethyl-phenyl]-3-(5-trifluoromethyl-pyridin-2-yl)-propionamide] | 0.259 | 1 | – | inhibition at 1 µM (human VR1 [3]): 98%
Cc1cc(NC(=O)CCc2ccc(Cl)cc2)cnc1-n1cnc(Cl)c1Cl [Cpd 234] | 0.29 | 0.0855 | – | inhibition at 1 µM (human VR1 [3]): 88%
O=C(CCc1ccc(C(F)(F)F)cc1)Nc1cnc(-n2ccnc2)c(C(F)(F)F)c1 [Cpd 240] | 0.379 | 3.85 | 101 | –
Cc1cc(NC(=O)/C=C/c2ccc(N(C)C3CCCCC3)cc2)cnc1-n1cnc(Cl)c1Cl [Cpd 241, trans-3-[4-(Cyclohexyl-methyl-amino)-phenyl]-N-[6-(4,5-dichloro-imidazol-1-yl)-5-methyl-pyridin-3-yl]-acrylamide] | 0.396 | 0.0798 | – | inhibition at 1 µM (human VR1 [3]): 92%
O=C(CCc1ccc(Cl)cc1)Nc1ccc(-n2ccnc2)c(C(F)(F)F)c1 [Cpd 242] | 0.4 | 2.11 | – | inhibition at 1 µM (human VR1 [3]): 76%
O=C(CCc1ccc(C(F)(F)F)cc1)Nc1ccc(C2=NOS(=O)N2)c(C(F)(F)F)c1 (centres unmarked) [Cpd 245, N-[4-(2-Oxo-2,3-dihydro-2λ^4-[1,2,3,5]oxathiadiazol-4-yl)-3-trifluoromethyl-phenyl]-3-(4-trifluoromethyl-phenyl)-propionamide] | 0.491 | 0.974 | 9 | inhibition at 1 µM (human VR1 [3]): 70%
Cc1cc(NC(=O)CCc2ccc(C(C)(C)C)cc2)cnc1-c1cccc(C#N)c1 [Cpd 246] | 0.543 | 0.371 | 105 | –
O=C(CCc1ccc(C(F)(F)F)cc1)Nc1ccc(-c2ccc(CO)cc2)c(C(F)(F)F)c1 [Cpd 250] | 0.718 | 0.199 | 100 | –
O=C(CCc1ccc(C(F)(F)F)cc1)Nc1cnc(-n2cnc(Cl)c2Cl)c(C(F)(F)F)c1 [Cpd 251] | 0.724 | 0.135 | 101 | –
O=C(CCc1ccccc1)Nc1ccc(-c2ccncc2)c(C(F)(F)F)c1 [Cpd 252] | 0.896 | 5.35 | 100 | –
O=C(CCc1ccc(C(F)(F)F)cc1)Nc1ccc(-n2cnc3ccccc32)c(C(F)(F)F)c1 [Cpd 253] | 0.952 | 0.0443 | – | inhibition at 1 µM (human VR1 [3]): 52%
O=C(CCc1ccc(C(F)(F)F)cc1)Nc1ccc(-c2ccnc(F)c2)c(C(F)(F)F)c1 [Cpd 254] | 0.995 | 0.293 | 98 | –
O=C(CCc1ccc(C(F)(F)F)cc1)Nc1cnc(-c2ccncc2)c(C(F)(F)F)c1 [Cpd 255] | – | 0.329 | 100 | –
O=C(CCc1ccc(C(F)(F)F)cc1)Nc1ccc(-c2cccnc2F)c(C(F)(F)F)c1 [Cpd 258] | – | 0.5 | 93 | –
Cc1cc(NC(=O)CCc2ccc(C(C)(C)C)cc2)cnc1-c1cccc([N+](=O)[O-])c1 [Cpd 260] | – | 0.391 | 93 | –
O=C(CCc1ccc(C(F)(F)F)cc1)Nc1ccc(-n2cnc(Cl)c2Cl)cc1 [Cpd 263] | – | 0.0844 | 67 | –
Cc1cn(-c2ccc(NC(=O)/C=C/c3ccc(C(F)(F)F)cn3)cc2C(F)(F)F)cn1 [Cpd 277] | – | 0.14 | – | inhibition at 1 µM (human VR1 [3]): 38%
O=C(O)Cc1ccccc1Nc1c(Cl)cccc1Cl [diclofenac] | – | – | – | pain relief (chronic arthritis): partially effective; effect on hyperalgesia [2]: reversed the hyperalgesic effect of zymosan
COc1ccc2c(c1)c(CC(=O)O)c(C)n2C(=O)c1ccc(Cl)cc1 [indomethacin] | – | – | – | pain relief (chronic arthritis): partially effective
C=C(C)[C@]12C[C@@H](C)[C@@]34O[C@](Cc5ccccc5)(O[C@@H]1[C@@H]3C=C(COC(=O)Cc1cc(I)c(O)c(OC)c1)C[C@]1(O)C(=O)C(C)=C[C@@H]41)O2 [iodo-resiniferatoxin] | – | – | – | antitussive action (cough): antitussive action
CN1CC[C@]23c4c5ccc(O)c4O[C@H]2[C@@H](O)C=C[C@H]3[C@H]1C5 [morphine] | – | – | – | pain relief (chronic arthritis): fully relieved pain
COc1cccc(C2(O)CCCCC2CN(C)C)c1 (centres unmarked) [tramadol] | – | – | – | pain relief (chronic arthritis): fully relieved pain
